# In patent US20240270762A1, “PENICILLIN-BINDING PROTEIN INHIBITORS” (priority 2021, published 2024):
# Experiments:
# A. baumannii 1258916 = assay: microbe, parasite or virus in culture; format: cell-based, Acinetobacter baumannii; conditions: Acinetobacter baumannii, 1258916, read-out: MIC, A. baumannii 1258916
# N. gonorrhoeae CDC-0197 = assay: Liquid broth MIC in Fastidious broth; conditions: Neisseria gonorrhoeae, CDC0197, read-out: Minimum Inhibitory Concentration (MIC), N. gonorrhoeae CDC-0197
# A. baumannii ATCC 19606 = assay: microbe, parasite or virus in culture; format: cell-based; conditions: Acinetobacter baumannii, ATCC19606, read-out: MIC, A. baumannii ATCC 19606
# N. gonorrhoeae MS11 = assay: Liquid broth MIC in Fastidious broth; conditions: Neisseria gonorrhoeae, MS11, read-out: Minimum Inhibitory Concentration (MIC), N. gonorrhoeae MS11
# A. baumannii CDC-0036 = assay: microbe, parasite or virus in culture; format: cell-based; conditions: Acinetobacter baumannii, CDC0036, read-out: MIC, A. baumannii CDC-0036
# P. aeruginosa ATCC 35151 = assay: microbe, parasite or virus in culture; format: cell-based; conditions: Pseudomonas aeruginosa, ATCC35151, read-out: Minimum inhibitory concentration, P. aeruginosa ATCC 35151
# P. aeruginosa CDC-0095 = assay: microbe, parasite or virus in culture; format: cell-based; conditions: Pseudomonas aeruginosa, CDC0095, read-out: Minimum inhibitory concentration, P. aeruginosa CDC-0095
# A. baumannii CDC-0033 = assay: microbe, parasite or virus in culture; format: cell-based; conditions: Acinetobacter baumannii, CDC0033, read-out: MIC, A. baumannii CDC-0033
# A. baumannii CDC-0083 = assay: microbe, parasite or virus in culture; format: cell-based; conditions: Acinetobacter baumannii, CDC0083, read-out: MIC, A. baumannii CDC-0083
# [1] = system: N. gonorrhoeae ATCC 49226; assay: Liquid broth MIC in Fastidious broth; conditions: Neisseria gonorrhoeae, ATCC49226, read-out: Minimum Inhibitory Concentration (MIC), N. gonorrhoeae ATCC 49226
# P. aeruginosa CDC-0110 = assay: microbe, parasite or virus in culture; format: cell-based; conditions: Pseudomonas aeruginosa, CDC0110, read-out: Minimum inhibitory concentration, P. aeruginosa CDC-0110
# A. baumannii ATCC 17978 = assay: microbe, parasite or virus in culture; format: cell-based; conditions: Acinetobacter baumannii, ATCC17978, read-out: MIC, A. baumannii ATCC 17978
# [2] = target: T1, PBP3 from Pseudomonas aeruginosa (PAO1) (Pseudomonas aeruginosa, UniProt G3XD46); assay: Bocillin-FL fluorescence polarization competition binding, P. aeruginosa PBP3; conditions: Binding affinity to P. aeruginosa PBP3; fluorescence polarization competition binding assay using Bocillin-FL; read-out: P. aeruginosa PBP3 Potency
# T1 construct: made in house
# Procedure, shortened: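 Purified PBPs pre-incubated with inhibitor (E. coli PBP3 1.5 μM, 30 min; P. aeruginosa PBP3 0.75 μM, A. baumannii PBP1a 1 μM and PBP3 0.2 μM, 15 min), then Bocillin-FL 0.1 μM (0.05 μM for PBP1a) added; FP read up to 60 min. EC50 = concentration halving bound Bocillin-FL.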
# N. gonorrhoeae WHO X = assay: Liquid broth MIC in Fastidious broth; conditions: Neisseria gonorrhoeae, read-out: Minimum Inhibitory Concentration (MIC), N. gonorrhoeae WHO X
# N. gonorrhoeae WHO M = assay: Liquid broth MIC in Fastidious broth; conditions: Neisseria gonorrhoeae, read-out: Minimum Inhibitory Concentration (MIC), N. gonorrhoeae WHO M
# T1 sequence (G3XD46 whole entry): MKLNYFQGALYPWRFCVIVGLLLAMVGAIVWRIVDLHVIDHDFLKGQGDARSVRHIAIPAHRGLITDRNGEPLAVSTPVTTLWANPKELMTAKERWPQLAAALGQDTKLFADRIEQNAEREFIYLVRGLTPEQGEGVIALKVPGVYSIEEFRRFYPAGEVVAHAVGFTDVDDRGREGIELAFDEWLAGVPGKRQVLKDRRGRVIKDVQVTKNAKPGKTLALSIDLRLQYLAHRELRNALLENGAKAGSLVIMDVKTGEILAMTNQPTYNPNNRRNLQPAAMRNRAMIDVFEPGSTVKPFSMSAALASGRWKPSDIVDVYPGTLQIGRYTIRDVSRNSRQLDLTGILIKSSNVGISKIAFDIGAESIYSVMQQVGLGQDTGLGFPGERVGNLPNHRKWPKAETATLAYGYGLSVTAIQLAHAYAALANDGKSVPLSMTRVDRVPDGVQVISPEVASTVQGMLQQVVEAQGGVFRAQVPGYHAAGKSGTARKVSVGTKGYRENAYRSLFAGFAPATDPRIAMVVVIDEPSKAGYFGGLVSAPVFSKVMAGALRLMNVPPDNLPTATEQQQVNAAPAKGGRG
SMILES,MIC (A. baumannii 1258916) [µg/mL],MIC (N. gonorrhoeae CDC-0197) [µg/mL],MIC (A. baumannii ATCC 19606) [µg/mL],MIC (N. gonorrhoeae MS11) [µg/mL],MIC (A. baumannii CDC-0036) [µg/mL],MIC (P. aeruginosa ATCC 35151) [µg/mL],MIC (P. aeruginosa CDC-0095) [µg/mL],MIC (A. baumannii CDC-0033) [µg/mL],MIC (A. baumannii CDC-0083) [µg/mL],MIC [1] [µg/mL],MIC (P. aeruginosa CDC-0110) [µg/mL],MIC (A. baumannii ATCC 17978) [µg/mL],IC50 [2] [µM],MIC (N. gonorrhoeae WHO X) [µg/mL],MIC (N. gonorrhoeae WHO M) [µg/mL]
"O=C(CN1CCN(C(=O)N[C@@H](C(=O)N[C@H]2Cc3ccc(F)c(C(=O)O)c3OB2O)c2cc(F)c(O)c(O)c2Cl)C(=O)C1=O)NCc1nccs1 [Example 241, (R)-3-((R)-2-(2-chloro-5-fluoro-3,4-dihydroxyphenyl)-2-(2,3-dioxo-4-(2-oxo-2-((thiazol-2-ylmethyl)amino)ethyl)piperazine-1-carboxamido)acetamido)-7-fluoro-2-hydroxy-3,4-dihydro-2H-benzo[e][1,2]oxaborinine-8-carboxylic acid]",< 1,16 to 32,< 1,16 to 32,2 to 4,< 1,2 to 4,8 to 16,> 128,4 to 8,< 1,< 1,< 10,> 64,4 to 8
"O=C(NCCN1CCN(C(=O)NC(C(=O)N[C@H]2Cc3ccc(F)c(C(=O)O)c3OB2O)c2cc(F)c(O)c(O)c2Cl)C1=O)c1ccccc1 (stereo partly drawn) [Example 242, (3R)-3-(2-(3-(2-benzamidoethyl)-2-oxoimidazolidine-1-carboxamido)-2-(2-chloro-5-fluoro-3,4-dihydroxyphenyl)acetamido)-7-fluoro-2-hydroxy-3,4-dihydro-2H-benzo[e][1,2]oxaborinine-8-carboxylic acid]",< 1,> 64,< 1,16 to 32,2 to 4,< 1,2 to 4,2 to 4,2 to 4,16 to 32,2 to 4,< 1,< 10,> 64,16 to 32
"O=C(NCCN1CCN(C(=O)NC(C(=O)N[C@H]2Cc3ccc(F)c(C(=O)O)c3OB2O)c2cc(F)c(O)c(O)c2Cl)C1=O)c1ccc(O)cc1 (stereo partly drawn) [Example 243, (3R)-3-(2-(2-chloro-5-fluoro-3,4-dihydroxyphenyl)-2-(3-(2-(4-hydroxybenzamido)ethyl)-2-oxoimidazolidine-1-carboxamido)acetamido)-7-fluoro-2-hydroxy-3,4-dihydro-2H-benzo[e][1,2]oxaborinine-8-carboxylic acid]",< 1,16 to 32,< 1,16 to 32,< 1,< 1,8 to 16,2 to 4,< 1,16 to 32,< 1,< 1,< 10,> 64,4 to 8
"O=C(NCCN1CCN(C(=O)NC(C(=O)N[C@H]2Cc3ccc(F)c(C(=O)O)c3OB2O)c2cc(F)c(O)c(O)c2Cl)C1=O)c1cccc(O)c1 (stereo partly drawn) [Example 244, (3R)-3-(2-(2-chloro-5-fluoro-3,4-dihydroxyphenyl)-2-(3-(2-(3-hydroxybenzamido)ethyl)-2-oxoimidazolidine-1-carboxamido)acetamido)-7-fluoro-2-hydroxy-3,4-dihydro-2H-benzo[e][1,2]oxaborinine-8-carboxylic acid]",< 1,> 64,< 1,> 64,2 to 4,< 1,32 to 64,2 to 4,< 1,> 64,2 to 4,< 1,< 10,> 64,16 to 32
"O=C(NCCN1CCN(C(=O)NC(C(=O)N[C@H]2Cc3ccc(F)c(C(=O)O)c3OB2O)c2cc(F)c(O)c(O)c2Cl)C1=O)c1ccncc1 (stereo partly drawn) [Example 245, (3R)-3-(2-(2-chloro-5-fluoro-3,4-dihydroxyphenyl)-2-(3-(2-(isonicotinamido)ethyl)-2-oxoimidazolidine-1-carboxamido)acetamido)-7-fluoro-2-hydroxy-3,4-dihydro-2H-benzo[e][1,2]oxaborinine-8-carboxylic acid]",< 1,> 64,< 1,16 to 32,2 to 4,< 1,2 to 4,8 to 16,< 1,16 to 32,< 1,< 1,< 10,> 64,16 to 32
